Measurements published in patent US5157023A, “Antipyretic and anti-inflammatory lys pro val compositions and method of use” (priority 1991, dated 1992).
Peptide text beside a SMILES is read from it.

Tests used:
[1] = test system: normal body temperature; assay: body temperature of afebrile rabbits; assay type: in vivo
Protocol: (§1) Experimental rabbits that were to be used in the antipyresis study were restrained in conventional holders and a thermistor probe (Yellow Springs International, No. 701) was inserted about 100 mm into the rectum and taped to the tail. In certain experiments, another thermistor probe (Yellow Springs International, No. 709) was attached to the dorsal surface of the ear. Temperature recordings were made every 10 minutes via a MINC 11 online computer connected to a digital temperature recorder (Datalogger, United Systems Corp.) At least 1 hour was allowed after the probes were inserted before injections were made, and all experiments were separated by at least 48 hours. Experiments were run in an environmental chamber at 23~C.
Injections of the tripeptide were given 30 minutes after the pyrogen, into the intraventricular cannula. […] Decreases in fever, calculated as percent reduction of the area under the control fever curve over the apparent duration of action of the peptide (1.5 hours), were 24%, 31%, and 48% for the 0.5, 1.0, and 2.0 milligram doses, respectively. Similarly, intravenous administration of 2, 20 and 200 milligrams of the tripeptide reduced fever 34, 27 and 67% , respectively, during the 1.5 hour period after injection of the leukocytic pyrogen. Control saline injections, centrally administered, caused no significant reduction in body temperature.

[2] = test system: leukocytic pyrogen-induced fever; assay: in vivo rabbit pyresis assay (leukocytic pyrogen-induced fever); parameters: species or system New Zealand white rabbits; details: for decrease in fever, percent reduction of the area under the control fever curve: intraventricular (central), 30 min after pyrogen, over 1.5 hours; for fever reduction: 1.5 hour period after injection of leukocytic pyrogen
Protocol: Leukocytic pyrogen is a molecule capable of producing transient fever in mammals which is produced by incubating rabbit leukocytes with Salmonella typhosa endotoxin. More specifically, to produce leukocytic pyrogen, donor rabbits were first sacrificed by decapitation. Blood was collected in a heparinized pryrogen-free beaker. Heparinized 50-ml glass centrifuge tubes were filled 3/4 full with whole blood, saline was added to fill each tube, and the solution was gently mixed. The tubes were then centrifuged at low speed for 20 min. The buffy coat was drawn off and placed in pyrogen-free flasks. Lactate Ringer's solution equal in volume to one-half that of the red cell layer, was added along with Salmonella typhosa endotoxin (Difco, No. 0901) also in Ringer's solution (1 ug/ml), to the buffy coat. The mixture was incubated at 38~C in a shaking water bath for 4 hours. The solution was centrifuged, filtered (Nalgene, 0.20 microns), and the leukocytic pyrogen-containing filtrate was stored at 4~C. Samples of leukocytic pyrogen were heated to 70~C for 2 hours and injected intravenously to test for endotoxin contamination.
Injections were 50 ul in volume and were followed by a 20 ul saline flush. Intravenous injections were made via the marginal ear vein. Intravenous leukocytic pyrogen injections were 0.07 ml of a stock solution made up of a mixture of leukocytic pyrogen derived from 4 donors. When injected, leukocytic pyrogen stock solution was diluted with nonpyrgenic isotonic saline. Injections were made with commercial nonpyrogenic syringes. Glassware was washed with chromic acid, rinsed with deionized water and heated to 200~C for a minimum of 2 hours to insure that it was pyrogen free.
Adult New Zealand white rabbits were used for the development of an antipyretic assay. The rabbits were housed individually in a 21-23~Cenvironment with a 12 hour light/dark cycle; food and water were available ad libitum. […]. Rabbits were placed in a Kopf rabbit stereotaxic instrument and a stainless steel cannula (No. 201, David Kopf Instruments)was inserted into a lateral ventricle at a point 1.0 mm anterior to the bregma and 2.7 mm lateral to the midline. The cannula was lowered until cerebrospinal fluid appeared inside the well of the cannula. Stainless steel screws and dental acrylic were used to anchor the cannula to the caluarium. Benzathine penicillin G (Bicillin, Wyeth Laboratories) was given post-operatively (150,000 units intramuscularly).
as §1
The average thermal response, the mean change in temperature (~C) over the duration of the response measured in hours, was calculated for each response and the paired t-test was used for statistical analysis of the data. The time period over which the experimental anti-pyretic temperature response was determined was generally set by the duration of the control response for the individual animal. The control response begins with the first deviation from baseline temperature and continues until the temperature returns to baseline or to the point nearest the baseline within 5 hours. The mean change in temperature for each 10 minute intervals during this time period are summed and divided by the total number of 10 minute periods. […]

[3] = test system: carrageenan-induced swelling of rat paws; assay: carrageenan/rat paw edema assay; assay type: in vivo, male Sprague-Dawley rats; details: for overall reduction of carrageenan-induced swelling relative to hydrocortisone: approximately equal weights, intraperitoneal
Protocol: A second in vivo bioassay for anti-inflammatory activity was conducted in which the action of the tripeptide was compared to that of hydrocortisone. In this assay, the two agents were given at similar doses and tested for their independent ability to inhibit carrageenan-induced swelling of rats paws. This assay, the rat paw edema test, was conducted generally as it is typically performed in the art, for example, as described by Winter et al. (1962), Proc. Soc. Exp. Biol. Med., 111:544 or in U.S. Pat. No. 4,150,137.
Briefly, the assay was performed as follows. Each of twenty-four male Sprague-Dawley rats was assigned to one of four groups: tripeptide treatment and controls (matched according to body weight and initial paw volume), hydrocortisone treatment and matched controls. The volume of the right rear paw of the test and control animals was determined using standard procedures and a mercury displacement volumetric technique. An intraperitoneal injection of the tripeptide (Ac-Lys-Pro-Val-NH2, 100 mg/kg, N=6), of hydrocortisone (100 mg/kg, N=6), or saline (matched volume, N=12) was given to each rat. One hour later 0.5 ml of 1% lambda carrageenan in saline solution was injected into the right rear paw of the animals and the paw volume was again recorder (baseline measure). […] Thereafter paw volume was measured each hour for out hours. For comparison of the effects of the two treatments, paw volume of experimental animals measured at hourly intervals was expressed as a percentage of the volume change of their respective matched controls.

[4] = test system: histamine-mediated increase in capillary permeability; assay: skin-blueing test (Sparrow/Wilhelm assay), histamine-induced blue weals; assay type: in vivo, New Zealand white rabbits; details: for relative intensity of histamine-induced blue weals, experimental (E) vs control (C): scored 30 minutes after histamine
Excerpt: This model relies on the principal that localized, subcutaneous injections of histamine will result in a localized increase in capillary permeability. When the test animal has been pretreated with blue dye intravenously, the localized histamine injections will elicit blue-colored "weals" around the injection site. Thus, by preadministration of an effective anti-inflammatory agent, the blue color of the histamine-induced weals will be much less pronounced, with the amount of color reduction being dependent on the relative amount and/or potency of the anti-inflammatory agent used.
Non-moulting New Zealand white rabbits were used for the sparrow/Wilhelm assay. The skin of the rabbits back was closely clipped 1-2 days previous to the experiment, but not dipilated, and the rabbits were kept warm until tested. Various amounts of the protected tripeptide (diacetyl-L-lys-l-Pro-L-Val-NH2) were injected intravenously into an ear vein approximately 15 minutes prior to intravenous injection of blue dye. Control rabbits received sham injections. Fifteen minutes following injection of the agent or sham, the rabbits received approximately 30 mg/kg of Pontamine blue dye as a 2.5% solution in 0.45% saline, into an exposed vein.
Immediately following dye injections, histamine was injected intradermally in a 0.10 ml volume (1.25 mg histamine 0.1 ml volume) at several sites on each side of the spine. In all, one vertical row of six injections were made on each side of the spine. The relative intensity of the resultant blue weals were scored by an independent observer 30 minutes after histamine injection.

CC(C)[C@H](NC(=O)[C@@H]1CCCN1C(=O)[C@@H](N)CCCCN)C(=O)O [L-Lys-L-Pro-L-val] (H-Lys-Pro-Val-OH)
reduction in body temperature of afebrile rabbits ([1]; injections of 200 milligrams): no reduction in body temperature | decrease in fever, percent reduction of the area under the control fever curve ([2]; 0.5 milligram dose): 24% | decrease in fever, percent reduction of the area under the control fever curve ([2]; 1.0 milligram dose): 31% | decrease in fever, percent reduction of the area under the control fever curve ([2]; 2.0 milligram dose): 48% | duration of (antipyretic) action ([2]; central administration): 1.5 h | fever reduction ([2]; intravenous 2 milligrams): 34% | fever reduction ([2]; intravenous 20 milligrams): 27% | fever reduction ([2]; intravenous 200 milligrams): 67%

[Cl][Cu][Cl] [copper ions, cupric chloride]
effect of copper ions alone on normal temperature ([1]; doses used to enhance the protected peptide): no effect on normal temperature

C[C@]12CCC(=O)C=C1CC[C@@H]1[C@@H]2[C@@H](O)C[C@@]2(C)[C@H]1CC[C@]2(O)C(=O)CO [hydrocortisone, reference compound]
inhibition of paw swelling in the first hour ([3]; 100 mg/kg intraperitoneal, first hour after carrageenan, p<0.05 Mann-Whitney vs tripeptide): markedly inhibited swelling

diacetyl-L-Lysyl-L-Prolyl-L-Valyl-NH2 [protected tripeptide]
relative intensity of histamine-induced blue weals, experimental (E) vs control (C) ([4]; 0.625 ug/kg body weight intravenously): No difference | relative intensity of histamine-induced blue weals, experimental (E) vs control (C) ([4]; 1.25 ug/kg body weight intravenously): E lighter than C | relative intensity of histamine-induced blue weals, experimental (E) vs control (C) ([4]; 5 ug/kg body weight intravenously): E lighter than C | relative intensity of histamine-induced blue weals, experimental (E) vs control (C) ([4]; 10 ug/kg body weight intravenously): E lighter than C | lowest intravenous dosage reducing histamine-mediated increase in capillary permeability ([4]; intravenous): 1.25 ug/kg body weight | lowest dosage eliciting a demonstrable reduction in histamine-mediated vascular permeability to vital dyes ([4]; rabbit, in vivo): about 1 microgram/kilogram | reduction of fever induced by intravenous leukocytic pyrogen ([2]; 0.5 mg, central administration): more than 50% | antipyretic potency relative to the unprotected tripeptide ([2]; central administration): at least four | duration of (antipyretic) action ([2]; central administration): at least four | activity relative to the unprotected species on a weight basis ([2]; rabbit pyresis assay, summary statement): approximately twice | inhibition of paw edema compared with hydrocortisone ([3]; 100 mg/kg intraperitoneal each, 1 h before carrageenan, hours after the first hour, p>0.20): no significant difference | overall reduction of carrageenan-induced swelling relative to hydrocortisone ([3]; listed as diacetyl-Lys-Pro-Val-NH2): roughly equivalent | overall reduction of carrageenan-induced swelling relative to hydrocortisone ([3]; listed as protected Lys-Pro-Val tripeptide): commensurate with hydrocortisone
